# In patent US11406103B2, “Sanitizing rinse based on quat-anionic surfactant synergy” (Ecolab USA Inc., priority 2016, dated 2022):
# “Also recorded” adds a separate entry of the source. Like-named read-outs stand apart in the source and are kept apart here.
# Legend:
# [1] = test system: Escherichia coli ATCC 11229; experiment: Low temperature warewash sanitizing rinse test; format: cell-based; conditions: anionic surfactant paired with quaternary ammonium compound, in this study
# Protocol: The sanitizing efficiency was determined for the experimental formulas of Table 8A-8B using the following procedure: • 1.) Set up low temperature ware wash machine to our specific settings (see 7-cycle procedure) • a. Set water Temperature (120° F.) • b. Check water Hardness (4-6 gpg) • c. Set water flow rate • d. Hand dose in chemistry, no need to set up (50 ppm Quat, 50 ppm Bleach) • e. Watch these variables throughout tests • 2.) Have 10 processed Libby glasses for each tested chemistry run • a. 5 will be unwashed controls • b. 5 will be washed to detect kill • 3.) Have enough sterile tubs to hold glasses—supplied by Micro • a. Max 20 glasses per tub, or 2 runs • 4.) Have enough swabs to collect specimen—supplied by Micro • a. Need 2 per run or 1 swab per 5 glasses • 5.) Have 1 buffer solution tube per 5 glasses, 2 per run • 6.) Have Micro bring in an E. coli suspension • 7.) Get 10 glasses ready in easy reach • 8.) Fill one glass, an inch from the top, with E. coli suspension • a. Start timer for 10 minutes at this point • 9.) Pour E. coli Suspension from first glass into second glass, from second glass into third, and so on • 10.) Dip the top inch of each soiled glass into E. coli suspension to coat rim • 11.) Set glasses upside down in a sterile tub and let dry for 10 minutes • 12.) Swab 5 of the 10 glasses as your test control group • a. […]
# [2] = Dynamic surface tension (SITA science line t60, bubble pressure); format: physicochemical
# Protocol: The SITA science line t60 measures the dynamic surface tension of liquids up to the semi-static range. Air bubbles are generated from a capillary with known radius. The bubble pressure is measured as a function of bubble life time, which can be correlated to the surface tension according to the Young-Laplace equation. […] The dynamic surface tension behavior of surfactants is particularly important in applications where a quick response of surfactant is required, for example, in short rinse cycles of automated dishwashing.
# The SITA science line t60 was calibrated with DI water. […] Following calibration, the SITA was programmed to take readings at the desired time intervals (i.e., 0.3, 1.6, 3.0, 9.1 seconds).
# 10-15 mL were transferred into 20 mL vials and immersed in a water bath to 25° C.±2° C. The samples were equilibrated for 10-15 minutes. The samples were individually tested. After each sample was tested the SITA's cleaning procedure was run, then the surface tension of DI water was checked to ensure the SITA was adequately clean. If the DI water measurements were not within 72.0±1.0 mN/m, then the cleaning procedure was run again. […]
# Glewwe foam test = format: physicochemical
# Protocol: A test was run to determine the foam profiles of the five quat solutions of Example 1. A Glewwe foam apparatus in combination with the following procedure was used for this test. First, each quat was prepared and gently poured into a Glewwe cylinder. Samples tested contained a concentration of 50 ppm of the indicated antimicrobial quats. A ruler was attached to the side of the cylinder, and the solution was level with the bottom of the ruler. The pump was turned on. Foam height was estimated by reading the average level of foaming according to the ruler. Foam height readings were taken versus time with a stopwatch or timer. The pump was turned off and height of the foam was recorded at various times. […] The foam level was read after 15 seconds of agitation and again after 60 seconds of agitation for a given amount of time. A stable foam is defined when the foam remains for several minutes after agitation is stopped. A partially stable foam breaks slowly within a minute. An unstable foam breaks rapidly in less than 15 seconds. A desirable rinse should have unstable foam to no foam. In contrast, antimicrobial hand soap should have stable foam.
# The results from the foaming test are shown in FIG. 2, and described in Table 3 below.
# Another foam evaluation test was run using the procedure described in Example 2.
# The inclusion of additional additives (defoamer and solubilizer/booster, such as Emulsogen) to the Quat-Anionic surfactant pairs were also analyzed, provided in Table 5 below (5A-5B), using the procedure described in Example 2.
Compound,"antimicrobial synergy with quat, in words [1]",Dynamic Surface Activity [2],Foaming Profile (Glewwe foam test),other results
CCCCCCCCCC(=O)O [Decanoic acid],best antimicrobial synergy,–,–,–
Alkyl Benzyl ammonium chloride [Uniquat QAC-50],–,–,–,"Dynamic Surface Activity ([2]; ranking 1-5 among five quats, 100 ppm quat, 75° F.): 3; Foaming Profile (Glewwe foam test; ranking 1-5, Glewwe Foam Test, 50 ppm Quat, 6psi, 140° F.): 1"
Dioctyl (C8) dimethyl ammonium chloride [Bardac LF80],–,5,5,"Dynamic surface tension [2]: 69 mN/m; dynamic surface tension / surface activity, in words [2]: least surface active; also recorded: very low surface activity; also recorded: very little surface activity; foam profile, in words (Glewwe foam test): lowest foam profile"
Didecyl (C10) dimethyl ammonium chloride [Bardac 2250],–,1,3,–
CCCCCCCC(=O)O [Octanoic acid],best antimicrobial synergy,–,–,–
